From US10961163B2, “Compositions and methods useful for enhancing the microbial conversion of nitrate into ammonium” (The Regents of the University of California, priority 2016, dated 2021)

These molecules were tested on microbial enrichment cultures (assay: Inhibitory potency (IC50) of inorganic compounds against growth and ammonium production, microbial enrichment with yeast extract). Settings: not given.
Type: cell-based
In the case of `O.O.O.O.O.O.[Cl-].[Cl-].[Co+2]` [Cobalt chloride hexahydrate], the “NH4^+ IC50/growth IC50 ratio” value is reported as 22.1846.
For `[Cl-].[Cl-].[Cl-].[Eu+3]` [Europium(III) chloride], the “NH4^+ IC50/growth IC50 ratio” value was 0.1036.
For `[Cl-].[Cl-].[Cl-].[Ga+3]` [Gallium(III)chloride], the “NH4^+ IC50/growth IC50 ratio” value was 1.0037.
`Cl.NO` [Hydroxylamine hydrochloride] was tested, and the “NH4^+ IC50/growth IC50 ratio” value was 0.3854.
With `[Cl][Pb][Cl]` [Lead(II)chloride] the “NH4^+ IC50/growth IC50 ratio” value was 0.0174.
`[Cl-].[Li+]` [Lithium chloride] was tested, and the “NH4^+ IC50/growth IC50 ratio” value was 3.4054.
For `[Cl-].[K+]` [Potassium Chloride], the “NH4^+ IC50/growth IC50 ratio” value was 0.4776.
`O.O=[Te]([O-])[O-].[K+].[K+]` [Potassium tellurite hydrate] was tested, and the “NH4^+ IC50/growth IC50 ratio” value was 0.1044.
With `O=S(=O)([O-])CCBr.[Na+]` [Sodium 2-bromoethanesulfonate] the “NH4^+ IC50/growth IC50 ratio” value was 5.3024.
With `[Na+].[O-][Cl+2]([O-])[O-]` [Sodium Chlorate] the “NH4^+ IC50/growth IC50 ratio” value was 1.9090.
For `[Cl-].[Na+]` [Sodium Chloride], the “NH4^+ IC50/growth IC50 ratio” value was 21.9487.
In the case of `O.O.O.O.O.O.O.O=[As]([O-])([O-])O.[Na+].[Na+]` [Sodium arsenate dibasic heptahydrate], the “NH4^+ IC50/growth IC50 ratio” value is reported as 3.2618.
With `O=C([O-])O.[Na+]` [Sodium bicarbonate] the “NH4^+ IC50/growth IC50 ratio” value was 0.3242.
For `O=C([O-])[O-].[Na+].[Na+]` [Sodium carbonate], the “NH4^+ IC50/growth IC50 ratio” value was 0.5039.
In the case of `C[C@H](CCC(=O)[O-])[C@H]1CC[C@H]2[C@@H]3[C@H](O)C[C@@H]4C[C@H](O)CC[C@]4(C)[C@H]3C[C@H](O)[C@]12C.O.[Na+]` [Sodium cholate hydrate], the “NH4^+ IC50/growth IC50 ratio” value is reported as 5.9537.
`O=[As][O-].[Na+]` [Sodium m-arsenite] was tested, and the “NH4^+ IC50/growth IC50 ratio” value was 3.9664.
With `CS(=O)(=O)[O-].[Na+]` [Sodium methanesulfonate] the “NH4^+ IC50/growth IC50 ratio” value was 0.4289.
In the case of `[Na+].[Na+].[O]=[Mo](=[O])([O-])[O-]` [Sodium molybdate], the “NH4^+ IC50/growth IC50 ratio” value is reported as 6.7259.
In the case of `O=[N+]([O-])[O-].[Na+]` [Sodium nitrate], the “NH4^+ IC50/growth IC50 ratio” value is reported as 3.4080.
For `O=NO` [Sodium nitrite], the “NH4^+ IC50/growth IC50 ratio” value was 0.3023.
In the case of `[O-][Cl+3]([O-])([O-])O` [Sodium perchlorate monohydrate], the “NH4^+ IC50/growth IC50 ratio” value is reported as 5.2779.
With `[Na+].[O-][I+3]([O-])([O-])[O-]` [Sodium periodate] the “NH4^+ IC50/growth IC50 ratio” value was 7.8824.
In the case of `O.O=P([O-])(O)O.[Na+]` [Sodium phosphate monobasic monohydrate], the “NH4^+ IC50/growth IC50 ratio” value is reported as 0.3418.
In the case of `O=[PH](O)O` [Sodium phosphite dibasic pentahydrate], the “NH4^+ IC50/growth IC50 ratio” value is reported as 1.3336.
For `O=[Se](=O)(O)O` [Sodium selenate], the “NH4^+ IC50/growth IC50 ratio” value was 10.0581.
In the case of `O.O.O.O.O.O=[Se]([O-])[O-].[Na+].[Na+]` [Sodium selenite pentahydrate], the “NH4^+ IC50/growth IC50 ratio” value is reported as 0.2998.
In the case of `O=S(=O)([O-])[O-].[Na+].[Na+]` [Sodium sulfate], the “NH4^+ IC50/growth IC50 ratio” value is reported as 1.0000.
In the case of `O.O.O.O.O.O=S([O-])([O-])=S.[Na+].[Na+]` [Sodium thiosulfate pentahydrate], the “NH4^+ IC50/growth IC50 ratio” value is reported as 0.5741.
With `[Cl-].[Cl-].[Sr+2]` [Strontium chloride] the “NH4^+ IC50/growth IC50 ratio” value was 3.3568.
For `CC(=O)[O-].[Tl+]` [Thallium(I) acetate], the “NH4^+ IC50/growth IC50 ratio” value was 0.3751.
For `[Cl-].[Cl-].[Zn+2]` [Zinc chloride], the “NH4^+ IC50/growth IC50 ratio” value was 0.1037.
`O=[Te](=O)([O-])[O-].[K+].[K+]` [potassium tellurate] was tested, and the “NH4^+ IC50/growth IC50 ratio” value was 1.7673.
`[Cl-].[Rb+]` [rubidium chloride] was tested, and the “NH4^+ IC50/growth IC50 ratio” value was 1.4483.
In the case of `O=S(=O)([O-])[O-].[Ag+].[Ag+]` [silver sulfate], the “NH4^+ IC50/growth IC50 ratio” value is reported as 1.9192.
With `[Br-].[Na+]` [sodium bromide] the “NH4^+ IC50/growth IC50 ratio” value was 0.5766.
With `[F-].[Na+]` [sodium fluoride] the “NH4^+ IC50/growth IC50 ratio” value was 1.6628.
With `[I-].[Na+]` [sodium iodide] the “NH4^+ IC50/growth IC50 ratio” value was 0.2617.
In the case of `O=S([O-])[O-].[Na+].[Na+]` [sodium sulfite], the “NH4^+ IC50/growth IC50 ratio” value is reported as 2.4699.
Barium chloride dihydrate was tested, and the “NH4^+ IC50/growth IC50 ratio” value was 0.1756.
With Calcium chloride dihydrate the “NH4^+ IC50/growth IC50 ratio” value was 0.1455.
Manganese (II) chloride tetrahydrate was tested, and the “NH4^+ IC50/growth IC50 ratio” value was 0.0037.
In the case of Nickel (II) chloride hexahydrate, the “NH4^+ IC50/growth IC50 ratio” value is reported as 53.6273.
For Sodium Chlorite, the “NH4^+ IC50/growth IC50 ratio” value was 1.2683.
In the case of Sodium deoxycholate monohydrate, the “NH4^+ IC50/growth IC50 ratio” value is reported as 0.0027.
For Sodium metavanadate, the “NH4^+ IC50/growth IC50 ratio” value was 13.0898.
With Sodium thiophosphate tribasic hydrate the “NH4^+ IC50/growth IC50 ratio” value was 0.8963.
In the case of Sodium tungstate dihydrate, the “NH4^+ IC50/growth IC50 ratio” value is reported as 1.8289.

Same assay, conditions: microbial enrichment with complex carbon source (yeast extract), serial dilutions of inorganic compound; higher ratio favors ammonium production
`O=C(O)CC(NCCNC(CC(=O)O)C(=O)O)C(=O)O` (centres unmarked) [Ethylenediamine-N,N′-disuccinic acid] was tested, and the “NH4^+ IC50/growth IC50 ratio” value was 44.3418.
With `[Cl][Fe]([Cl])[Cl]` [Ferric chloride] the “NH4^+ IC50/growth IC50 ratio” value was 0.2642.
`O=C(O)c1cc(O)c(O)c(O)c1` [Gallic Acid] was tested, and the “NH4^+ IC50/growth IC50 ratio” value was 4.9374.
For `O=C(O)CN(CC(=O)O)CC(=O)O` [Nitrilotriacetic acid], the “NH4^+ IC50/growth IC50 ratio” value was 0.4756.
For `[Cl][Pd][Cl]` [Palladium(II) chloride], the “NH4^+ IC50/growth IC50 ratio” value was 0.4739.
`O=S(=O)([O-])CCS.[Na+]` [Sodium 2-mercaptoethanesulfonate] was tested, and the “NH4^+ IC50/growth IC50 ratio” value was 13.0401.
`OCl` [Sodium hypochlorite] was tested, and the “NH4^+ IC50/growth IC50 ratio” value was 0.0048.
For `O=P([O-])(O)OP(=O)([O-])O.[Na+].[Na+]` [Sodium pyrophosphate dibasic], the “NH4^+ IC50/growth IC50 ratio” value was 0.6988.
For `COc1cc(CO)ccc1O` [Vanillyl Alcohol], the “NH4^+ IC50/growth IC50 ratio” value was 2.0632.
For `CS(C)(=O)=O` [dimethyl sulfone], the “NH4^+ IC50/growth IC50 ratio” value was 2.0187.
With Aluminum chloride hydrate the “NH4^+ IC50/growth IC50 ratio” value was 0.0961.
With copper (II) chloride dihydrate the “NH4^+ IC50/growth IC50 ratio” value was 0.1069.
